Among the test systems are CAKI-1 renal; NCI-H522 lung; NCI-H460 lung; IGROV1 ovarian; SW-620 colon; UO-31 renal; HT29 colon; LOX IMVI melanoma; HCT-116 colon; OVCAR-4 ovarian; M14 melanoma; 786-0 renal; MDA-MB-435; MDA-MB-231 breast.
Assay in all cases: NCI anticancer screen, dose series, 48 h

Each structure is given as a SMILES string.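 48-hour exposure; five concentrations; linearly interpolated endpoints. GI50: concentration for 50% inhibition of growth. The concentration for full growth arrest is given as TGI.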 Bounds are passed on as bounds.

For `O=C(c1ccccc1)[C@H]1Nc2ccc(Cl)cc2[C@H]2OCCC[C@@H]12`, the TGI is 63 µM in the assay on CAKI-1 renal; 36.8 µM in the assay on NCI-H522 lung; 34.5 µM in the assay with NCI-H460 lung; more than 100 µM in the assay on IGROV1 ovarian; 39.1 µM in the assay on SW-620 colon; 33 µM in the assay on UO-31 renal. Further, the TGI was 35.3 µM in the assay on HT29 colon; 31.2 µM in the assay on LOX IMVI melanoma; 31.5 µM in the assay on HCT-116 colon; 45 µM in the assay on OVCAR-4 ovarian; 31.9 µM with M14 melanoma.
For `CS/C(=N\C(=S)Nc1ccccc1)Nc1ccccc1`, the TGI in the assay with CAKI-1 renal is 54.7 µM; with NCI-H522 lung, 38 µM; in the assay on NCI-H460 lung, 48.7 µM; with IGROV1 ovarian, 97.6 µM; with SW-620 colon it was more than 100 µM; in the assay on UO-31 renal it was 43.1 µM. The TGI in the assay on HT29 colon was 33.1 µM; with LOX IMVI melanoma, 38.2 µM; in the assay on OVCAR-4 ovarian, more than 100 µM; with M14 melanoma it was 96.1 µM.
Take `NC(=O)NO`: the TGI was 1720 µM in the assay on CAKI-1 renal; 2270 µM with NCI-H522 lung; 1770 µM with 786-0 renal; 2040 µM in the assay with NCI-H460 lung; more than 2020 µM with IGROV1 ovarian; more than 2500 µM in the assay with SW-620 colon. Further, the TGI was 1870 µM with UO-31 renal; more than 2500 µM in the assay with MDA-MB-435; more than 2440 µM in the assay with HT29 colon; more than 1410 µM in the assay on MDA-MB-231 breast; more than 2430 µM in the assay on LOX IMVI melanoma; more than 2500 µM in the assay on HCT-116 colon. Besides, the TGI is more than 2500 µM with OVCAR-4 ovarian and 1950 µM in the assay with M14 melanoma.
For `CC(=O)Oc1ccc2c(C)cc(=O)oc2c1`, the TGI with CAKI-1 renal, in the assay with NCI-H522 lung, in the assay with 786-0 renal, in the assay with NCI-H460 lung, in the assay on IGROV1 ovarian and with SW-620 colon was more than 100 µM each time. The TGI with UO-31 renal, in the assay with MDA-MB-435, in the assay with HT29 colon, with MDA-MB-231 breast, with LOX IMVI melanoma and in the assay with HCT-116 colon was more than 100 µM in each case. The TGI in the assay on OVCAR-4 ovarian and with M14 melanoma was more than 100 µM each time.
Consider `COc1cc2nc(-c3cccs3)nc(N3C(c4ccc(O)cc4)=NNC(=O)c4ccccc43)c2cc1OC`, for which the TGI was 43.9 µM in the assay on CAKI-1 renal; more than 100 µM in the assay with NCI-H522 lung; more than 100 µM in the assay with 786-0 renal; 82.1 µM with NCI-H460 lung; 97.7 µM in the assay on IGROV1 ovarian; 79.8 µM in the assay on SW-620 colon. In addition, the TGI in the assay with UO-31 renal turned out to be 37.4 µM; in the assay on MDA-MB-435, 58.9 µM; with HT29 colon, 67.9 µM; in the assay on MDA-MB-231 breast, 42.6 µM; in the assay with LOX IMVI melanoma, 54.6 µM; in the assay on HCT-116 colon, 86 µM. Further, the TGI in the assay with OVCAR-4 ovarian is more than 100 µM; in the assay on M14 melanoma it was 79.4 µM.
For `CCCCNc1c(CN)cnc2cc(Cl)ccc12`, the TGI is 65.7 µM in the assay on CAKI-1 renal; 34.5 µM in the assay with NCI-H522 lung; 40.2 µM with 786-0 renal; 25.8 µM in the assay with NCI-H460 lung; 34.4 µM with IGROV1 ovarian; 33.5 µM in the assay with SW-620 colon. Further, the TGI in the assay on MDA-MB-435 amounted to 35 µM; with HT29 colon it was 37 µM; in the assay with MDA-MB-231 breast it was 30 µM; in the assay on LOX IMVI melanoma, 29.9 µM; with HCT-116 colon, 35.9 µM; with OVCAR-4 ovarian, 40.1 µM. In addition, the TGI with M14 melanoma turned out to be 36.6 µM.
As to `N=C(N)C(N=Nc1ccccc1)C(N)=O` (stereo unspecified), the TGI with CAKI-1 renal, in the assay with NCI-H522 lung, with 786-0 renal, in the assay on NCI-H460 lung, in the assay with IGROV1 ovarian and in the assay with SW-620 colon was more than 100 µM in each case. In addition, the TGI in the assay on UO-31 renal, in the assay on MDA-MB-435, in the assay with HT29 colon, in the assay with MDA-MB-231 breast, in the assay with LOX IMVI melanoma and with HCT-116 colon was more than 100 µM each time. Further, the TGI in the assay on OVCAR-4 ovarian and in the assay on M14 melanoma was more than 100 µM throughout.
With `CN(C)CCCNc1ncnc2nc[nH]c12`, the TGI in the assay on CAKI-1 renal, with NCI-H522 lung, in the assay on 786-0 renal, in the assay on NCI-H460 lung, in the assay on IGROV1 ovarian and in the assay on SW-620 colon was more than 100 µM each time. Also, the TGI in the assay with UO-31 renal, in the assay on MDA-MB-435, in the assay on HT29 colon, in the assay with MDA-MB-231 breast, with LOX IMVI melanoma and in the assay on HCT-116 colon was more than 100 µM each time. In addition, the TGI in the assay on OVCAR-4 ovarian and in the assay on M14 melanoma was more than 100 µM throughout.
With `C=CCOC1OC(CS(=O)(=O)O)C(O)C(O)C1O` (stereo unspecified), the TGI in the assay on CAKI-1 renal, in the assay with NCI-H460 lung, in the assay with IGROV1 ovarian, with SW-620 colon, with UO-31 renal and in the assay on MDA-MB-435 was more than 100 µM in each case. Besides, the TGI in the assay on HT29 colon, in the assay on MDA-MB-231 breast, in the assay on LOX IMVI melanoma, in the assay on HCT-116 colon, in the assay with OVCAR-4 ovarian and with M14 melanoma was more than 100 µM each time.
As for `Cc1ccc2cc3c(ccc4ccccc43)c3c2c1CC3`, the TGI with CAKI-1 renal, in the assay with NCI-H522 lung, in the assay on 786-0 renal, in the assay with NCI-H460 lung, with IGROV1 ovarian and in the assay on SW-620 colon was more than 100 µM throughout. The TGI in the assay on UO-31 renal, with MDA-MB-435, in the assay on HT29 colon, with MDA-MB-231 breast, with LOX IMVI melanoma and in the assay on HCT-116 colon was more than 100 µM each time. In addition, the TGI in the assay with OVCAR-4 ovarian and with M14 melanoma was more than 100 µM in each case. The GI50 with OVCAR-4 ovarian was more than 100 µM.

(Values after PubChem BioAssay (NCI).)
